Laboratory results: ChEMBL document CHEMBL4000157, “Total Synthesis of (±)-Kuwanol E” (J Nat Prod, 2016)

Assay: Inhibition of wild type recombinant Mycobacterium tuberculosis PTPB using p-nitrophenyl phosphate as substrate preincubated for 10 mins followed by substrate addition measured for 10 mins by UV-VIS spectrophotometer

CC(C)=CCc1c(O)ccc(C(=O)[C@@H]2[C@@H](c3ccc(O)cc3O)CC(C)=C[C@H]2c2c(O)cc(/C=C/c3ccc(O)cc3O)cc2O)c1O
Ki: 1600 nM
